Data published in patent publication US7473783B2, “Bicyclic pyrazolo protein kinase modulators” (SGX Pharmaceuticals, Inc., priority 2003, dated 2009).
pIC50: −log10 of the molar value.

Tests used:
[1] = biological target: T1, cAbl (Mus musculus, UniProt P00520); test: Abl kinase assay (PK/LDH coupled, NADH loss at 340 nm); assay type: biochemical; details: Table 7; 10 μM ATP
T1 construct: 2 μg/mL Abl kinase domain; made in house; host or cells: E. coli BL21(DE3) strains
T1 sequence (P00520 242-493 limits assumed): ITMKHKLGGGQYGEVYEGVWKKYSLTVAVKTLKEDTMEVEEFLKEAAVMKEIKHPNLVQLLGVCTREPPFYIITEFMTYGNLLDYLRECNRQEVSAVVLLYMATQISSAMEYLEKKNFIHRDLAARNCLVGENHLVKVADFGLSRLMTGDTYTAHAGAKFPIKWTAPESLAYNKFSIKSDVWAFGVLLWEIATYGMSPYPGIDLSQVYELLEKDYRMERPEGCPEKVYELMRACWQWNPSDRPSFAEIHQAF
From the text: Although this example presents the use of the kinase domain of a mutant form of Abl T315I 0-P, the kinase assays may use various forms of mutant and wild type Abl, including, for example, the entire molecule, the kinase domain, or a portion thereof. The kinases used in the assays may also be of varying phophorylation states. In the present example, a mutant kinase at a zero phosphorylation state was used.
Materials: Abl substrate peptide=EAIYAAPFAKKK-OH (Biopeptide, SD CA); βNADH (Sigma CAT#N-8129, FW=709.4); 2M MgCl2; 1M HEPES buffer, pH 7.5; Phosphoenolpyruvate=PEP (Sigma CAT#P-7002, FW=234); Lactate dehydrogenase=LDH (Worthington Biochemical CAT#2756); Pyruvate Kinase=PK (Sigma CAT#P-9136); ATP (Sigma CAT#A-3377, FW=551); Greiner 384-well UV star plate; and Purified and unphosphorylated T315I Abl kinase domain (clone 5582d42PPt6p6).
Stock Solutions: 10 mM NADH (7.09 mg/mL in miliQH2O) make fresh daily; 10 mM Abl substrate peptide (13.4 mg/mL in miliQH2O) store at −20° C.; 100 mM HEPES buffer, pH 7.5 (5 mL 1M stock+45 mL miliQH2O); 100 mM MgCl2 (5 mL 2M MgCl2+95 ml dH2O); 100 mM PEP (23.4 mg/mL in dH2O) store at −20° C.; 10 mM ATP (5.51 mg/mL in dH2O) store at −20° C. (dilute 50 μL into total of 10 mL miliQH2O daily=50 μM ATP working stock); 1000 U/mL PK (U/mg varies with lot) flash-freeze under liquid N2 and store at −80° C.; and 1000 U/mL LDH (U/mg varies with lot) flash-freeze under liquid N2 and store at −80° C.
Standard Assay Setup for 384-well format (50 μl reaction): 300 μM NADH; 10 mM MgCl2; 2 mM PEP; 45 U/mL PK; 60 U/mL LDH; 200 μM Abl substrate peptide; 2.5 μL test compound (in DMSO); 2 μg/mL Abl kinase domain; 10 μM ATP; 100 mM HEPES buffer; QS with miliQ dH2O to 50 μL; Positive controls contained DMSO with no test compound. Negative controls contained 5 μl of 0.5M EDTA (50 mM in the assay). The dephosphorylated form of the c-Abl T315I mutant were used in the biochemical screening assays. The kinase reaction was initiated at time t=0 by the addition of ATP.
The activity was measured by following the time-dependent loss of NADH by absorbance spectroscopy at 340 nm. The linear portion of the resulting progress curve was then be analyzed by linear regression to get the activity in absorbance units/time, reported as the slope of that best fit line (moles/unit time can be calculated from using molar extinction coefficient for NADH at 340 nm, 6250M^−1cm^−1).
Data was analyzed using the equation: Z′=1-[3*(σ++σ−)/|μ+−μ−|], where μ denotes the mean and σ the standard deviation. The subscript designates positive or negative controls. The Z′ score for a robust screening assay should be ≧0.50. The typical threshold=μ+−3*σ+. Any value that falls below the threshold was designated a “hit”.
Dose response was analyzed using the equation: y=min+{(max−min)/(1+10^[compound]-logIC50)}, where y is the observed initial slope, max=the slope in the absence of inhibitor, min=the slope at infinite inhibitor, and the IC50 is the [compound] that corresponds to ½ the total observed amplitude (Amplitude=max−min).
To measure modulation, activation, or inhibition of AblKD, a test compound was added to the assay at a range of concentrations. Inhibitors may inhibit AblKD activity at an IC50 in the micromolar range, the nanomolar range, and, for example, in the subnanomolar range.
To measure the binding of a compound to Abl or AblKD, a test kit manufactured by Discoverx (Fremont, Calif.), ED—Staurosporine NSIP™ Enzyme Binding Assay Kit (see U.S. Pat. No. 5,643,734) was used.

[2] = test system: MV4-11 cells; test: Cell survival assay (96-well XTT / 384-well AlamarBlue), MV4-11; assay type: cell-based; details: Homo sapiens, Table 10, symbol outside brackets, 72 hours
Experimental: (§1) Flt3 cell line selection was performed according to the following two known methodologies: Kelly, et al, Cancer Cell 1:421-32 (2002); and Ye, et al, Blood 100: 2941-2949 (2002). MV4-11 and THP cells are maintained in Iscove's Modified Dulbecco's Medium supplemented with 10% fetal bovine serum (FBS) and penicillin/streptomycin, Ba/F3 cells are maintained in RPMI 1640 supplemented with 10% FBS, penicillin/streptomycin and 5ng/ml recombinant mouse IL-3.
(§2) Compounds were tested in both of the following assays in triplicates.
(§3) 96-well XTT assay: Cells are grown in their growth media containing various concentrations of compounds (triplicates) on a 96-well plate for 72 hours at 37° C. The starting cell number is 8000 cells per well and volume is 120 μl. At the end of the 72-hour incubation, 40μl of XTT labeling mixture (50:1 solution of sodium 3′-[1 -(pheylamino-carbonyl)-3,4-tetrazolium]-bis (4-methoxy-6-nitro)benzene sulfonic acid hydrate and Electron-coupling reagent: PMS (N-methyl dibenzopyrazine methyl sulfate) is added to each well of the plate. After additional 2 hours of incubation at 37° C., the absorbance reading at 405 nm with background correction at 650 nm is done using a spectrophotometer.
(§4) 384-well AlamarBlue assay: 90 μl of cell suspension is plated onto each well of a 384-well plate preprinted with 0.5 μl of compound in DMSO or DMSO only. The starting cell number is 4000 cells per well. After 72-hour incubation, 10 μl of AlamarBlue solution (440 μM resazurin in PBS) is then added to each well of the plate. After additional 2-hour incubation at 37° C., fluorescence is measured using a TECAN plate reading with excitation at 535 nm and emission 591 nm.

[3] = test system: THP cells; test: Cell survival assay (96-well XTT / 384-well AlamarBlue), THP; assay type: cell-based; details: Table 10; symbol in brackets; 72 hours
Experimental: as §1, §2, §3, §4

| SMILES | pIC50 [1] | pIC50 [2] | pIC50 [3] |
| --- | --- | --- | --- |
| Nc1nc2[nH]nc(-c3ccccc3)c2s1 | 4.00 to 4.96 |  |  |
| O=C(Nc1nc2[nH]nc(-c3cccc(Cl)c3)c2s1)c1ccccc1 | 5.00 to 6.00 |  |  |
| O=C(Nc1nc2[nH]nc(-c3ccccn3)c2s1)c1ccccc1 | 4.00 to 4.96 |  |  |
| COc1ccc(-c2n[nH]c3nc(NC(=O)c4ccccc4)sc23)cc1 | 4.00 to 4.96 |  |  |
| O=C(Cc1cccs1)Nc1nc2[nH]nc(-c3ccccc3)c2s1 | > 6.00 |  |  |
| O=C(Nc1nc2[nH]nc(-c3ccccc3)c2s1)c1ccco1 [drawing 264] | > 6.00 |  |  |
| O=C(Nc1nc2[nH]nc(-c3ccc(Cl)cc3)c2s1)c1ccccc1 [drawing 281] |  | 5.00 to 6.00 | 4.00 to 4.96 |
| O=C(Nc1nc2[nH]nc(-c3ccccc3)c2s1)c1ccncc1 [drawing 282] |  | 5.00 to 6.00 | 4.00 to 4.96 |
| COCCOCC(=O)Nc1nc2[nH]nc(-c3ccccc3)c2s1 [drawing 283] |  | 5.00 to 6.00 | 4.00 to 4.96 |
| CC(=O)N1CCC(C(=O)Nc2nc3[nH]nc(-c4ccccc4)c3s2)CC1 [drawing 284] |  | 5.00 to 6.00 | 4.00 to 4.96 |
